Measurements reported in ChEMBL document CHEMBL5236568, “Discovery of 3,4-dihydropyrimido[4,5-d]pyrimidin-2(1H)-one and 3,4-dihydropyrido[2,3-d]pyrimidin-2(1H)-one derivatives as novel ENPP1 inhibitors” (Bioorg Med Chem Lett, 2022).

Tests used:
[1] = molecular target: T1, Ectonucleotide pyrophosphatase/phosphodiesterase family member 1 (Homo sapiens) (UniProt P22413); assay: Inhibition of ENPP1 (unknown origin) at 10 uM relative to control
T1 sequence (whole entry): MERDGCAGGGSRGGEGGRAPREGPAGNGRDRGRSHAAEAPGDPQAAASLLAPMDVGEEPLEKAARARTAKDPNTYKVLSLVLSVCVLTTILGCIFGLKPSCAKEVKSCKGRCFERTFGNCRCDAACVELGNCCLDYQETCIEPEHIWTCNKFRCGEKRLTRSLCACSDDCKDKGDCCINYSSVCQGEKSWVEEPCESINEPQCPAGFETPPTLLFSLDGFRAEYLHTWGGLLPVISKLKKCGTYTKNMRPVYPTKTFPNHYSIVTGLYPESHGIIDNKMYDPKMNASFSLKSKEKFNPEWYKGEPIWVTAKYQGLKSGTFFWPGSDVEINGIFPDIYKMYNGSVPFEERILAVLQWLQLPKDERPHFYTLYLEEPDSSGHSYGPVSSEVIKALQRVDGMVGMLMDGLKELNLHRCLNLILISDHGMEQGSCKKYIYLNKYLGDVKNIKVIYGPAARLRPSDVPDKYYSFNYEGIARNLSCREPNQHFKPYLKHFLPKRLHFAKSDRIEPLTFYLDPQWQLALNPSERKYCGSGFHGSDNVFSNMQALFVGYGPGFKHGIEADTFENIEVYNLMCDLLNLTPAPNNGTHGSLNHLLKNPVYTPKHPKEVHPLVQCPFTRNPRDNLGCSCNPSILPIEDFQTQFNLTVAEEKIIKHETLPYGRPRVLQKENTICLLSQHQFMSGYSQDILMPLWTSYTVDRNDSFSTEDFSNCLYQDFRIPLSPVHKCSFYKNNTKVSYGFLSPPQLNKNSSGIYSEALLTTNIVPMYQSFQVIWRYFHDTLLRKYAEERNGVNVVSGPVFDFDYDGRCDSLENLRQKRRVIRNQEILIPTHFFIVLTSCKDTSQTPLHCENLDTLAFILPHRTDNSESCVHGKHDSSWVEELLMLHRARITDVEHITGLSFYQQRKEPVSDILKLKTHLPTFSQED

[2] = molecular target: T2, Ectonucleotide pyrophosphatase/phosphodiesterase family member 1 (Homo sapiens, UniProt P22413); assay: Inhibition of ENPP1 (unknown origin)
T2 sequence (P22413 whole entry): T1 sequence (whole entry)

[3] = Metabolic stability in human liver microsomes assessed as compound remaining at 1 uM after 30 mins; assay type: ADME, Microsome; details: read-out: Stability
CYP2C19 = CYP2C19 (Homo sapiens, UniProt P33261); assay: Inhibition of CYP2C19 (unknown origin) assessed as remaining activity at 10 uM relative to control; assay type: ADME; details: read-out: Activity
Chain of CYP2C19 (P33261 whole entry): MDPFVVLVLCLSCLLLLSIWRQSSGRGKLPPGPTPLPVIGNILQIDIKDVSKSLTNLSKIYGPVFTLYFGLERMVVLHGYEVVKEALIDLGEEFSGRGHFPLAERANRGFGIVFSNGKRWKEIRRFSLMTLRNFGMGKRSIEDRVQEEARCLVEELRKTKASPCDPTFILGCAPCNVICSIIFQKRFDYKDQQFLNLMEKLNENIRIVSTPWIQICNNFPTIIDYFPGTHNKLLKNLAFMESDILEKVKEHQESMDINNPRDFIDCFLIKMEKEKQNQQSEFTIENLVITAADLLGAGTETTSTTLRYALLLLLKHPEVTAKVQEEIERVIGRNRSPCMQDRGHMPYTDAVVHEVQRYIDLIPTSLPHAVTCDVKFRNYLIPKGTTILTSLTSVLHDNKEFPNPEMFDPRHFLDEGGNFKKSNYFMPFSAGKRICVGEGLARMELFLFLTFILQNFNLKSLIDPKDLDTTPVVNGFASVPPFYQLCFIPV

[4] = Metabolic stability in rat liver microsomes assessed as compound remaining at 1 uM after 30 mins; assay type: ADME, Microsome; details: read-out: Stability
CYP2C9 = CYP2C9 (Homo sapiens, UniProt P11712); assay: Inhibition of CYP2C9 (unknown origin) assessed as remaining activity at 10 uM relative to control; assay type: ADME; details: read-out: Activity
Chain of CYP2C9 (P11712 whole entry): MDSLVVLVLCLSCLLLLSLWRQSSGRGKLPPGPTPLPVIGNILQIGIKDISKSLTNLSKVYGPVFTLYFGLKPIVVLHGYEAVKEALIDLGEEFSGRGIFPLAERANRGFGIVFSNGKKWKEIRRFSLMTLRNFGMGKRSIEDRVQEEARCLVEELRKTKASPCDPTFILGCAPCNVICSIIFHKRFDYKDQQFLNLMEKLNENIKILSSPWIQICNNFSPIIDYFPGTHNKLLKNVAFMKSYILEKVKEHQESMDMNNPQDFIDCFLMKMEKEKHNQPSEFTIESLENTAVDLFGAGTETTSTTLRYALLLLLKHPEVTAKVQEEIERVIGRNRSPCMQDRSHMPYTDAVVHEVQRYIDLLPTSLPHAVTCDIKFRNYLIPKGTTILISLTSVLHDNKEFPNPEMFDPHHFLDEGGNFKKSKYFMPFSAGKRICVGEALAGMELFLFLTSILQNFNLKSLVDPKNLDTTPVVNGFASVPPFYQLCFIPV

CYP1A2 = molecular target: T3, CYP1A2 (Homo sapiens, UniProt P05177); assay: Inhibition of CYP1A2 (unknown origin) assessed as remaining activity at 10 uM relative to control; assay type: ADME; details: read-out: Activity
T3 sequence (P05177 whole entry): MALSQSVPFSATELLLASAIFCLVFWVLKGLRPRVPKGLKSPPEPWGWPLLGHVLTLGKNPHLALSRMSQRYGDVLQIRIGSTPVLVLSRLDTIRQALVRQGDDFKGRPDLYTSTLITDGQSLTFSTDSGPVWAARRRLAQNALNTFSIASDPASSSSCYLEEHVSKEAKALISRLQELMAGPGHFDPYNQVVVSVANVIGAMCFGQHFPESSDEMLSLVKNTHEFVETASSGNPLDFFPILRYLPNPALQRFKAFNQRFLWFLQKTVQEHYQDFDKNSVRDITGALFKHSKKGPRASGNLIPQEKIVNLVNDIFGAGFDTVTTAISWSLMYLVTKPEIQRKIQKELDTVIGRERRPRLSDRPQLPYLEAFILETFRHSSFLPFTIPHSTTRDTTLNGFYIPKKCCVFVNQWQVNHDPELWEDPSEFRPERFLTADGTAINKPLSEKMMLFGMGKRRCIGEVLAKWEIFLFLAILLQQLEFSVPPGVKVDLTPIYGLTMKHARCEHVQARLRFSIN

CYP2D6 = CYP2D6 (Homo sapiens, UniProt P10635); assay: Inhibition of CYP2D6 (unknown origin) assessed as remaining activity at 10 uM relative to control; assay type: ADME; details: read-out: Activity
Chain of CYP2D6 (P10635 whole entry): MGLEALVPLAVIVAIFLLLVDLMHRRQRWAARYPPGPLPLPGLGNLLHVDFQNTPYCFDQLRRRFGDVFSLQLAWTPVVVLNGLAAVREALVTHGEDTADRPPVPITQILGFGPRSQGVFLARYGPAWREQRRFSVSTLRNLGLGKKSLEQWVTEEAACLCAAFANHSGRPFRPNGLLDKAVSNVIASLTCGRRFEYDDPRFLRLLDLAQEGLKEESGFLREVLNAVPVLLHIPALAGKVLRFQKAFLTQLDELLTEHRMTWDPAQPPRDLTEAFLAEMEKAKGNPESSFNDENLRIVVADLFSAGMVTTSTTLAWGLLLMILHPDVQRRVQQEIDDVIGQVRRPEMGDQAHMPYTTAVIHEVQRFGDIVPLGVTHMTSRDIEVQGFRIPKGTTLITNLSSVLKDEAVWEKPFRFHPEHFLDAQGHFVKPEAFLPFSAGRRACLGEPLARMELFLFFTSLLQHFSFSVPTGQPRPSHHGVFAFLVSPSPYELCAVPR

CYP3A4 = CYP3A4 (Homo sapiens, UniProt P08684); assay: Inhibition of CYP3A4 (unknown origin) assessed as remaining activity at 10 uM relative to control; assay type: ADME; details: read-out: Activity
Chain of CYP3A4 (P08684 whole entry): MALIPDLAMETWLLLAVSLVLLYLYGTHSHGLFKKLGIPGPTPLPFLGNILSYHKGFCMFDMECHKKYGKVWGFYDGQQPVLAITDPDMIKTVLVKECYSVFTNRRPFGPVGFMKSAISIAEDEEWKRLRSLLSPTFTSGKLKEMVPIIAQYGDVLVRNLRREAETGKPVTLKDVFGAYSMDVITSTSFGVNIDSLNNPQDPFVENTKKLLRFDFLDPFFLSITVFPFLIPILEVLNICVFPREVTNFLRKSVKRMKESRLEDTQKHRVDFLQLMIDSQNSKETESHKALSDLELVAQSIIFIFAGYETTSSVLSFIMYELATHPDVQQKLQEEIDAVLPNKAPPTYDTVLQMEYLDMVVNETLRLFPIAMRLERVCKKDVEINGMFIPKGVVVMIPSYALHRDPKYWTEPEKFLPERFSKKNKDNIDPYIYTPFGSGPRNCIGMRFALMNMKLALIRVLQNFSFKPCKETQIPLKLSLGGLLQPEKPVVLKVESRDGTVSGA

[5] = Metabolic stability in mouse liver microsomes assessed as compound remaining at 1 uM after 30 mins; assay type: ADME, Microsome; details: read-out: Stability

Row | SMILES | inhibition [1] [%] | IC50 [2] [µM] | other results
1 | Cc1ccc(S(=O)(=O)NCc2cccc(-c3ccnc4c3CN(C)C(=O)N4)c2)cc1 | 4 |  | 
2 | CN1Cc2c(ncnc2N2CCC(C)(NS(N)(=O)=O)CC2)NC1=O | 98 | 0.236 | 
3 | CN1Cc2c(-c3cccc(CNS(N)(=O)=O)c3)ccnc2NC1=O | 96 | 0.525 | 
4 | CN1Cc2c(-c3ccc(CN(C)S(N)(=O)=O)cc3)ccnc2NC1=O | 80 | 1.16 | 
5 | CN1Cc2c(ncnc2-c2cccc(CNS(C)(=O)=O)c2)NC1=O | 30 |  | 
6 | CN1Cc2c(-c3cccc(NS(N)(=O)=O)c3)ccnc2NC1=O | 95 | 0.766 | 
7 | CN1Cc2c(NCc3ccc(NS(N)(=O)=O)cc3)ncnc2NC1=O | 100 | 0.045 | 
8 | CN1Cc2c(ncnc2N2CCC(C)(CNS(N)(=O)=O)CC2)NC1=O | 100 | 0.0037 | remaining at 0.5 h, 1 µM [3]: 85.9%; activity at 10 µM (CYP2C19): > 100%; remaining at 0.5 h, 1 µM [4]: 82.3%; activity at 10 µM (CYP2C9): 89.4%; activity at 10 µM (CYP1A2): 94.3%; activity at 10 µM (CYP2D6): 90.9%; activity at 10 µM (CYP3A4): 89.7%; remaining at 0.5 h, 1 µM [5]: 96.4%
9 | NS(=O)(=O)NCc1ccc(-c2ccnc3c2CN(Cc2ccccc2)C(=O)N3)cc1 | 9 |  | 
10 | Cc1ccc(S(=O)(=O)NCc2cccc(-c3ncnc4c3CN(C)C(=O)N4)c2)cc1 | 68 |  | 
11 | CN1Cc2c(ncnc2-c2cccc(NS(N)(=O)=O)c2)NC1=O | 100 | 0.36 | 
12 | CN1Cc2c(ncnc2-c2ccc(CNS(N)(=O)=O)c(F)c2)NC1=O | 96 | 0.916 | 
13 | CN1Cc2c(-c3ccc(CNS(N)(=O)=O)cc3)ccnc2NC1=O | 100 | 0.389 | 
14 | NS(=O)(=O)Nc1cccc(-c2ccnc3c2CN(C2CC2)C(=O)N3)c1 | 62 | 7.46 | 
15 | CN1Cc2c(ncnc2N2CCC(NS(N)(=O)=O)CC2)NC1=O | 93 | 0.759 | 
16 | CN1Cc2c(-c3ccc(CNS(N)(=O)=O)cc3)ccnc2N(C)C1=O | 96 | 0.326 | 
17 | CN1Cc2c(ncnc2N2CCC(C)(CCNS(N)(=O)=O)CC2)NC1=O | 93 | 0.669 | 
18 | CN1Cc2c(ncnc2-c2ccc(CNS(N)(=O)=O)cc2)NC1=O | 97 | 0.452 | 

Second part, led by results:

Row | inhibition [1] [%] | IC50 [2] [µM] | SMILES | other results
19 | 15 |  | CN1Cc2c(-c3cccc(CNS(C)(=O)=O)c3)ccnc2NC1=O | 
20 | 99 | 0.171 | CN1Cc2c(ncnc2-c2cccc(CNS(N)(=O)=O)c2)NC1=O | 
21 | 99 | 0.0323 | CN1Cc2c(-c3ccc(CNS(N)(=O)=O)c(F)c3)ccnc2NC1=O | remaining at 0.5 h, 1 µM [3]: 86.9%; activity at 10 µM (CYP2C19): > 100%; remaining at 0.5 h, 1 µM [4]: 86.7%; activity at 10 µM (CYP2C9): > 100%; activity at 10 µM (CYP1A2): > 100%; activity at 10 µM (CYP2D6): > 100%; activity at 10 µM (CYP3A4): > 100%; remaining at 0.5 h, 1 µM [5]: 91.1%
22 | 96 | 0.773 | CN1Cc2c(ncnc2N2CCC(CCNS(N)(=O)=O)CC2)NC1=O | 
23 | 100 | 0.164 | CN1Cc2c(ncnc2N2CCC3(CC2)CCN(S(N)(=O)=O)C3)NC1=O | 
24 | 35 |  | NS(=O)(=O)NCc1ccc(-c2ccnc3c2CN(C2CC2)C(=O)N3)cc1 | 
25 | 62 |  | CN1Cc2c(N3CCC(CCNS(N)(=O)=O)CC3)ncnc2N(C)C1=O | 
26 | 20 |  | NS(=O)(=O)NCc1cccc(-c2ccnc3c2CNC(=O)N3)c1 | 
27 | 67 |  | CN1Cc2c(ncnc2Nc2ccc(NS(N)(=O)=O)cc2)NC1=O | 
28 | 0 |  | CN1Cc2c(-c3ccc(CNS(N)(=O)=O)cc3)ccnc2N(Cc2ccccc2)C1=O | 
29 | 100 | 0.048 | CN1Cc2c(ncnc2N2CCC(CNS(N)(=O)=O)CC2)NC1=O | 
